Test results published in patent publication US12310946B2, “Pharmaceutical composition for oral administration of edaravone and method of administering same” (MITSUBISHI TANABE PHARMA CORPORATION, priority 2020, dated 2025).

Experiments:
[1] = Clinical study #2: PK of edaravone oral formulation (formula #2), fasted vs 4 h after high-fat meal; assay type: in vivo; conditions: male, human, plasma, 100 mg, 100 mg oral, mean (n = 9)
Experimental: Effects of meal consumption before administration of the edaravone oral formulation on the pharmacokinetics of edaravone were evaluated. Specifically, clinical studies #1, #2, and #3 described below were conducted on separate days in Japanese healthy adult male subjects. In each of clinical studies #1, #2, and #3, one dose each of edaravone oral formulations (edaravone suspensions) of formulas #1, #2, and #3 shown in Table 1 below were used respectively and administered orally once during the study period. For each clinical study, a reference study was conducted (reference example), in which the edaravone oral formulation was administered in fasted conditions as described below, and in each clinical study and the corresponding reference study, the edaravone oral formulation was each administered to the same subjects.
For the high-fat meal, a meal with total calories per meal of 800 to 1000 kilocalories and calorie intake from lipid of 50% was used. For the standard meal, a meal with total calories per meal of 400 to 500 kilocalories and calorie intake from lipid of 25% was used. For the light meal, a liquid-type nutritional supplement with total calories per meal of 250 kilocalories (enteral nutritional supplement: Ensure Liquid (trade name)) was used.
The edaravone oral formulation (formula #2) was administered orally to the subjects 4 hours after high-fat meal consumption. Blood samples were each collected before the administration, and 5 minutes, 15 minutes, 30 minutes, 1 hour, 1.5 hours, 2 hours, 4 hours, 6 hours, 8 hours, 12 hours, 24 hours, 36 hours, and 48 hours after the administration, and the concentrations of unchanged edaravone in plasma were measured. On the other hand, as a reference example, the edaravone oral formulation was administered orally to the same subjects in fasted conditions, blood samples were collected, and the concentrations of unchanged edaravone in plasma were measured in the same manner. For the administration in fasted conditions, the edaravone oral formulation was administered orally after a lapse of 10 hours or longer from the previous meal consumption. None of the subjects consumed a next meal until the blood sample collection 4 hours after the administration was completed.

[2] = Clinical study #9: PK of edaravone oral formulation (formula #3) in healthy adults (reference group), oral, fasted; assay type: in vivo; conditions: both sexes, human, plasma, 105 mg oral, healthy (n = 42), mean, before weight correction
Experimental: On the other hand, a clinical study #9 shown below was conducted in healthy adult male and female subjects (42 in total) (the reference group). That is, the edaravone oral formulation of the formula #3 was administered orally to the reference group in fasted conditions after a lapse of 10 hours or longer. Then, blood samples were each collected before the administration, and 5 minutes, 15 minutes, 30 minutes, 45 minutes, 1 hour, 1.5 hours, 2 hours, 4 hours, 6 hours, 8 hours, 10 hours, 12 hours, 24 hours, 36 hours, and 48 hours after the administration, and the concentrations of unchanged edaravone in plasma were measured.
The resulting PK parameters were corrected for body weight of each subject adjusted to 70 kg by a proportional calculation for each of the patient group and the reference group. In addition, the results of the PK parameters after correction of the patient group are shown as box-whisker plots of #9 (the reference group), and individual plots of #5 (the patient group) and #9 (the reference group) in FIG. 3. In FIG. 3, X represents a mean value. […] Thus, the difference in the Cmax and the difference in the AUC before weight correction between the patient group and the reference group seen in Table 9 below are considered due to the difference in body weight between the patient group and the reference group, and the difference in the Cmax and the difference in the AUC after weight correction between the patient group and the reference group observed in FIG. 3 are each considered to be within the range of error.

[3] = Adsorption of edaravone to catheter in vitro (recovery after wash-in); assay type: physicochemical; conditions: regardless of the material of the catheter
Experimental: In administration using a catheter, catheters of various materials are used in medical facilities. Thus, whether administration is feasible with a catheter of any material was investigated by evaluating adsorption properties of catheters. That is, the edaravone oral formulation (#3) was passed through a catheter, and then the percentage of edaravone collected by washing in with water was evaluated.
Specifically, the edaravone oral formulation was loaded into a syringe for catheter administration to give an edaravone amount of 105 mg, and the edaravone oral formulation was passed from the syringe to each of the catheters. Water at a predetermined temperature was then injected into the catheter to wash in the edaravone oral formulation. The edaravone oral formulation that passed through the catheter and the wash-in liquid were collected and mixed, and an amount of edaravone contained in the mixed liquid was measured. The edaravone oral formulation was washed in under any of the following conditions: with 10 ml of water three times, with 30 ml of water at 25° C. or 40° C. once, or with 50 mL of water at 25° C. or 40° C. once. Three measurements were made for each catheter, and the mean and SD of recovery % were calculated.

[4] = formula #2, 4 h after high-fat meal

CC1=NN(c2ccccc2)C(=O)C1 [Edaravone, 3-methyl-1-phenyl-2-pyrazolin-5-one]
AUC(0-inf) [1, 4]: 1250 ng·h/mL
Cmax [1, 4]: 1010 ng/mL
Tmax [1, 4]: 28.2 min
half-life [1, 4]: 460 min
AUC(0-inf) ([1]; formula #2, fasted): 1650 ng·h/mL
Cmax ([1]; formula #2, fasted): 1810 ng/mL
Tmax ([1]; formula #2, fasted): 21.6 min
half-life ([1]; formula #2, fasted): 560 min
AUC(0-inf) [2]: 1760 ng·h/mL
Cmax [2]: 1660 ng/mL
Tmax [2]: 26.4 min
adsorption of edaravone on the catheters [3]: No adsorption
